Experimental data published in article PMC10100900, “Virtual Screening and In Vitro Experimental Verification of LuxS Inhibitors for Escherichia coli O157:H7” (Microbiology Spectrum, 2023).
Like-named read-outs stand apart in the source and are kept apart here.

Tests used:
LuxS of E. coli = target: T1, LuxS of E. coli (Escherichia coli O157:H7, UniProt Q8X902); test: AI-2 bioluminescence assay (V. harveyi BB170 reporter) of AI-2 production; format: cell-based; details: E. coli O157:H7 cultured 16 h with inhibitor, supernatant read with V. harveyi BB170
T1 construct: endogenous in cells; host or cells: E. coli O157:H7 (ATCC 43895)
T1 sequence (Q8X902 2-171): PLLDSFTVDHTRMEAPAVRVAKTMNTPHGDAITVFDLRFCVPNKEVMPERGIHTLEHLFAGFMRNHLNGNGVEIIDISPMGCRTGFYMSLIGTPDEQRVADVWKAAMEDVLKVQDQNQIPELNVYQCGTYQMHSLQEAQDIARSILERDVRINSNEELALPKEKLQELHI

E. coli O157:H7 biofilm = test: Biofilm formation, crystal violet (CV) staining; format: cell-based, Escherichia coli O157:H7; details: 50 μM, 24 h
Description: Based on previous studies, CV staining was used to assess biofilm formation ([67]). The overnight cultured E. coli O157:H7 was diluted to OD600 of 0.01. The diluted E. coli suspensions were mixed with different concentrations of hit compounds and incubated at 37°C for 24 h. The plate was washed three times using PBS (pH 7.2) before it was fixed with methanol for 30 min. After staining for 30 min with CV, the plates were rinsed with distilled water and dried at 55°C. Finally, the CV attached to wells was dissolved in 95% ethanol. The absorbance at 570 nm was then measured using a Multiskan Go Reader.

LuxS = target: T2, LuxS (Escherichia coli O157:H7, UniProt Q8X902); test: Surface plasmon resonance (BIAcore T200) binding
T2 sequence (Q8X902 2-171): T1 sequence (Q8X902 2-171)
Description: The binding affinity of the three compounds and LuxS was assessed by SPR assay using a BIAcore T200 (GE Healthcare, Pittsburgh, PA) ([64]). The LuxS protein was immobilized on a CM5 sensor chip with the final immobilization levels of 7,582.4 resonance units (RU). The running buffer used in the study was 1.0× phosphate-buffered saline containing detergent (PBS-P^+; pH 7.4) and 5% (vol/vol) dimethyl sulfoxide. For each binding cycle, the compound was injected for 120 s with a dissociation time of 180 s. A series of compound concentrations (0.94, 1.88, 3.75, 7.5, 15, and 30 μM) were injected for analysis, with furanone C30 as a positive control. Eventually, data were analyzed by Biacore evaluation software, whereas the equilibrium dissociation constant (KD = Kd/Ka) was calculated by curve fitting with a 1:1 binding model.

E. coli O157:H7 [1] = test: Growth, microbroth dilution assay (OD600); format: cell-based, Escherichia coli O157:H7; details: 6.25 to 100 μM, 24 h, compared to the control
Description: As described for previous protocols, growth and metabolic activity were evaluated by the broth dilution method and an alamarBlue assay ([65], [66]). Briefly, 96-well plates were seeded with bacterial suspension (OD600 = 0.01) containing different concentrations of hit compounds and incubated at 37°C for 24 h. At 600 nm, the absorbance was measured using the Multiskan Go Reader (Thermo Fisher Scientific, USA).

Caco-2 cells = test: Cytotoxicity, CCK-8 assay; format: cell-based; details: 24 h
Description: The cytotoxicity of hit compounds was assessed by a CCK-8 assay in Caco-2 cells. At 37°C, Caco-2 cells (1 × 10^5 cells/mL) were seeded in a 96-well plate for 24 h. Further, different concentrations of hit compounds were added to 96-well plates at final concentrations of 6.25, 12.5, 25, 50, and 100 μM. After incubation for 24 h, the plate was incubated at 37°C for 1 h with 10 μL of CCK-8 (MCE, China). A Multiskan Go Reader (Thermo Fisher Scientific) was used to measure the absorbance at 450 nm.

E. coli O157:H7 [2] = test: Metabolic activity, alamarBlue assay; details: 6.25 to 100 μM, 24 h, compared to the control
luxS gene = format: cell-based, E. coli
[3] = IC50, AI-2 bioluminescence assay

Row | Structure (SMILES) | IC50 (LuxS of E. coli; [3]) [µM] | also measured
1 | Cc1ccc(C(=O)NCc2ccc3c(c2)CCN3C(=O)c2ccc(Cl)cc2)cc1 [G883-0476] | 18.6 | –
2 | Cc1ccc(C(=O)N2CCc3cc(CNC(=O)c4ccc(C#N)cc4)ccc32)cc1 [G883-0304] | 19 | –
3 | CSc1ccc(CNC(=O)C2=Cc3cc(-c4ccccc4)ccc3OC2)cc1 [L449-1159] | – | biofilm formation, increased by about (E. coli O157:H7 biofilm): about 75.4%; IC50 (LuxS of E. coli; AI-2 bioluminescence assay): 8.64 µM
4 | O=C(NCc1nc2ccccc2[nH]1)c1ccccc1 [0180-0358] | 22.5 | –
5 | O=C(NCc1nc(-c2ccc3c(c2)ncn3C2CCCC2)no1)c1ccccc1 [G945-0601] | 13.4 | –
6 | O=C(NCCN1CCN(c2cccc(Cl)c2)CC1)c1cc2ccc3cccnc3c2[nH]1 [E950-0195] | 32.8 | –
7 | CCCn1cnc2cc(CNC(=O)c3cc4cc(Cl)ccc4[nH]3)ccc21 [M414-3326] | – | biofilm formation, increased by about (E. coli O157:H7 biofilm): ~53.6%; Kd (LuxS; read-out: equilibrium dissociation constant (KD), LuxS immobilized on CM5 chip, PBS-P+ pH 7.4, 5% DMSO, 1:1 binding model): 1.92 µM; effect on growth of E. coli (E. coli O157:H7 [1]): no significant effect; cytotoxicity to Caco-2 cells (Caco-2 cells; 6.25 to 100 μM): nontoxic; effect on metabolic activity of E. coli (E. coli O157:H7 [2]): no significant effect; suppression of the expression of LuxS (luxS gene): about 59.9%; IC50 (LuxS of E. coli; AI-2 bioluminescence assay): 9.62 µM
8 | Cc1ccc2ccc3cc(C(=O)NCCN4CCN(c5cccc(Cl)c5)CC4)[nH]c3c2n1 [E941-0195] | 28.5 | –
9 | O=C(NCc1ccc2c(c1)CCN2C(=O)c1ccc(F)cc1)c1cc2ccccc2[nH]1 [G883-0849] | 21.8 | –
10 | CSc1ccc(CNC(=O)c2cccc(-c3cnc(N4CCCC4)nc3)c2)cc1 [L368-0079] | – | biofilm formation, increased by about (E. coli O157:H7 biofilm): ~76.8%; IC50 (LuxS of E. coli; AI-2 bioluminescence assay): 7.01 µM
11 | O=C(NCc1ccc2c(c1)CCN2C(=O)c1ccccc1)c1ccc(Br)cc1 [G883-0627] | 19.6 | –
12 | O=C(NCC1CCN(Cc2ccc(Cl)cc2)CC1)c1n[nH]c2c1COc1ccccc1-2 [G365-0523] | 12.2 | –
13 | CC(C)C(=O)N1CCc2cc(CNC(=O)c3cc4ccccc4[nH]3)ccc21 [G883-2010] | 24.9 | –
14 | COc1ccc2[nH]c(C(=O)NC3CCC(CN4Cc5ccccc5C4=O)CC3)c(C)c2c1 (stereo not shown) [D753-0186] | 18.8 | –
15 | Cc1[nH]c(C(=O)NC2CCCCC2)c(C)c1S(=O)(=O)N1CCCCCC1 [F379-1612] | 26.1 | –
16 | O=C1C=C(Br)/C(=C/Br)O1 [furanone C30, reference compound] | – | Kd (LuxS; LuxS immobilized on CM5 chip, PBS-P+ pH 7.4, 5% DMSO, 1:1 binding model, read-out: equilibrium dissociation constant (KD)): 0.345 µM

Row | Structure (SMILES) | IC50 (LuxS of E. coli; [3]) [µM] | also measured
17 | CCc1ccc(NC(=O)CSCc2cc(=O)c3cccc(F)c3[nH]2)cc1 [G751-5415] | 26.4 | –
18 | O=C(NCCN1CCN(c2ccccc2F)CC1)c1cc2ccc3cccnc3c2[nH]1 [E950-0198] | 30.9 | –
19 | O=C(NC1CCN(Cc2ccccc2)CC1)c1ccc(-c2cc(N3CCCC3)ncn2)cc1 [L010-0050] | 20.4 | –
20 | COc1ccc(C(=O)Nc2cc(NC(=O)c3cc4ccccc4[nH]3)ccc2OC)cc1 [F603-0744] | 12.3 | –
21 | COc1cccc(NC(=O)CSCc2cc(=O)c3ccccc3[nH]2)c1 [G751-0153] | 16.8 | –
22 | Cc1ccc(C(=O)N2CCc3cc(CNC(=O)c4ccc(Br)cc4)ccc32)cc1 [G883-0331] | 15 | –
23 | O=C(NCc1ccc2c(c1)CCN2C(=O)c1ccccc1)c1ccc(Cl)cc1 [G883-0595] | 18.6 | –
24 | CCC(=O)N1CCc2cc(-c3ccc(C(=O)NCc4ccc(N(C)C)cc4)cc3)ccc21 [L413-0180] | 4.03 | biofilm formation, increased by about (E. coli O157:H7 biofilm): ~51.4%; Kd (LuxS): 77.7 µM; effect on growth of E. coli (E. coli O157:H7 [1]): no significant effect; cytotoxicity to Caco-2 cells (Caco-2 cells; 100 μM): slightly cytotoxic; cytotoxicity to Caco-2 cells (Caco-2 cells; 6.25 to 50 μM): nontoxic; effect on metabolic activity of E. coli (E. coli O157:H7 [2]): no significant effect; suppression of the expression of LuxS (luxS gene): ~65.1%
25 | CCCc1c(C)c2ccc(OC(=O)CNC(=O)c3ccccc3)cc2oc1=O [Y040-2389] | 12.8 | –
26 | CCC(=O)N1CCc2cc(-c3ccc(C(=O)NC4CCN(Cc5ccccc5)CC4)cc3)ccc21 [L413-0101] | 13.3 | –
27 | O=C(N/N=C/c1ccc(O)c(O)c1)c1cc(-c2ccc3ccccc3c2)n[nH]1 [3254-3286] | 7.57 | biofilm formation, increased by about (E. coli O157:H7 biofilm): ~81.12%; Kd (LuxS): 18.5 µM; effect on growth of E. coli (E. coli O157:H7 [1]): no significant effect; cytotoxicity to Caco-2 cells (Caco-2 cells; 6.25 to 100 μM): nontoxic; effect on metabolic activity of E. coli (E. coli O157:H7 [2]): no significant effect; suppression of the expression of LuxS (luxS gene): ~57.4%
28 | CCc1ccc(NC(=O)CSCc2cc(=O)c3cc(CC)ccc3[nH]2)cc1 [G751-5495] | 24.8 | –
29 | Cc1cc(CNC(=O)Nc2cccc3c2CCCC3)c(C)n1-c1ccccc1 [E983-1808] | 21.9 | –
30 | NC1=C(c2nc3ccccc3s2)C(=O)CN1c1cccc(C(=O)NCc2ccccc2)c1 [F187-0533] | 13.6 | –
31 | CCOc1ccc(NCC(=O)N/N=C/c2c[nH]c3ccccc23)cc1 [1761-1352] | 29.2 | –
